# Counter-ions that a name gives are not always drawn.
# Experiments:
# [1] = tested on: hK14mIL33tg mice; experiment: Scratching behavior (skin scratching time) in hK14mIL33tg mice; assay type: in vivo, mouse
# Protocol: Skin scratching time (sec/min) in any 20 min of wild-type mice (WT) and hK14mIL33tg mice (Tg) was measured. […] Furthermore, an effect of anti-histamine drugs on the scratching behavior was verified. Diphenhydramine hydrochloride (2 mg) was intraperitoneally administered to hK14mIL33tg mice. As a result, the scratching time of mice observed in 20 min from 6 min after the administration decreased from average 4.6 min to average 0.2 min (FIG. 19).
# [2] = tested on: hK14mIL33tg mice; experiment: Rash score of hK14mIL33tg mice after application to rash site; assay type: in vivo, mouse
# Protocol: Each item can be measured by a known method, or according to the below-mentioned Examples. For example, as for the rash score, 5 items of pruritus, erythematous plaque/bleeding, edema, epidermis detachment/erosion, and desquamation/drying are evaluated and rated as absent (0 point), mild (1 point), moderate (2 points), and severe (3 points), and the total points are used for measurement (Matsuda H et al., Int. Immunol, 9(3):461-466, 1997). As for the number of inflammatory cells, for example, cells derived from skin tissue, peripheral blood or lymph node are analyzed by flow cytometry, and the ratio thereof can be measured. The inflammatory cells include eosinophils, neutrophils, basophils, mast cells, type 2 innate lymphoid cells and the like, preferably eosinophils, mast cells and type 2 innate lymphoid cells. The total IgE concentration, histamine concentration, cytokine concentration and chemokine concentration can be measured by ELISA using each antibody. As used herein, cytokine is preferably IL-5 or IL-13. […]
# An effect of steroid drug on scratching behavior of hK14mIL33tg mice was verified. […] As rash scores, 5 items of pruritus, erythematous plaque/bleeding, edema, epidermis detach/erosion, and desquamation/drying were evaluated into absent (0 point), mild (1 point), moderate (2 points), and severe (3 points) (Matsuda H et al., Int. Immunol, 9(3):461-466, 1997). […]
Structure (SMILES),"scratching time after administration ([1]; 2 mg intraperitoneally, observed in 20 min from 6 min after the administration, average, n=3, before administration average 4.6 min) [min]","scratching time (result in words) ([1]; hK14mIL33tg (Tg) mice, increased scratching time vs wild-type)","total points of rash score after application ([2]; applied to rash site 5 times every 2 days, average, n=4, before application average 12.3 points, 5 items scored 0-3) [points]",rash score (result in words) ([2]; hK14mIL33tg (Tg) mice)
CN(C)CCOC(c1ccccc1)c1ccccc1 [Diphenhydramine hydrochloride],0.2,could reduce,,
CCCC(=O)O[C@]1(C(=O)COC(=O)CC)[C@@H](C)C[C@H]2[C@@H]3CCC4=CC(=O)C=C[C@]4(C)[C@@]3(F)[C@@H](O)C[C@@]21C [betamethasone butyrate propionate],,,4.8,could reduce

# — patent US9949465B2, “Atopic dermatitis model animal and use thereof” (HYOGO COLLEGE OF MEDICINE, priority 2013, dated 2018)
